According to ChEMBL document CHEMBL1240525, “Synthesis of cyclic di-nucleotidic acids as potential inhibitors targeting diguanylate cyclase” (Bioorg Med Chem, 2010):
Calls of active or inactive are those of the source. The calls are words filed in the database; no cut-off is given here.

Key:
Synechocystis sp. = assay: Inhibition of Synechocystis sp. recombinant diguanylate cyclase Slr1143 expressed in Escherichia coli DH5alpha at 100 uM after 2 mins
[1] = Inhibition of Synechocystis sp. recombinant diguanylate cyclase Slr1143 expressed in Escherichia coli DH5alpha after 2 mins

Row | Compound | inhibition (Synechocystis sp.) | IC50 [1] [µM]
1 | O=c1ccn([C@H]2O[C@@H]3COP(=O)(O)O[C@@H]4[C@H](O)[C@@H](n5ccc(=O)[nH]c5=O)O[C@H]4COP(=O)(O)O[C@H]3[C@H]2O)c(=O)[nH]1 | Active | 
2 | O=P1(O)OC[C@H]2O[C@H](n3cnc4c(O)ncnc43)[C@H](O)[C@@H]2OP(=O)(O)OC[C@@H]2O[C@H](n3cnc4c(O)ncnc43)[C@@H](O)[C@H]2O1 | 60% | 68.9
